From US12016858B2, “Methods for the treatment of abnormal involuntary movement disorders” (AUSPEX PHARMACEUTICALS, INC., priority 2015, dated 2024)

Test system: subjects with manifest HD, chorea
Test: ARC-HD open-label, single-arm study (Rollover and Switch cohorts)
Type: in vivo, human
Excerpt: In a second clinical trial, a method for converting patients with adequate control of chorea with tetrabenazine to deutetrabenazine treatment was implemented. Alternatives for Reducing Chorea in Huntington Disease (ARC-HD) was an open-label, single-arm study in which subjects with manifest HD who were receiving FDA-approved doses of tetrabenazine for the treatment of chorea or had successfully completed First-HD were invited to participate. The study thus comprised two cohorts. […] Other key inclusion criteria for the study included: diagnosed with manifest HD, as indicated by characteristic motor examination features; a documented expanded cytosine adenine guanine (CAG) repeat (≥37) and Total Functional Capacity (TFC) score ≥5 at or before Screening; able to ambulate without assistance for at least 20 yards ([…] devices such as walker or cane permitted); and subject has a reliable caregiver who interacts with the subject on a daily basis, oversees study drug administration, assures attendance at study visits, and participates in evaluations, as required. Key exclusion criteria included serious untreated or undertreated psychiatric illness (e.g., depression) at Screening or Baseline; concomitant dopamine receptor antagonists, dopamine agonists, levodopa, reserpine, N-methyl-D-aspartate receptor antagonists, or monoamine oxidase inhibitors within 30 days of Screening or Baseline; and score ≥11 on the depression subscale of the Hospital Anxiety and Depression Scale (HADS), a score of ≥11 on the Swallowing Disturbance Questionnaire (SDQ), or a Unified Parkinson's Disease Rating Scale (UPDRS) dysarthria score of ≥3 at Screening or Baseline. The guidance for investigators on conversion of subjects from stable doses of tetrabenazine to deutetrabenazine in the ARC-HD Switch study was designed to minimize the risk that dose conversion would result in either loss of efficacy or increased adverse events. The conversion method applied was based on modeling and simulation of Phase 1 pharmacokinetic data for deutetrabenazine and tetrabenazine. The objective of the pharmacokinetic analysis was to identify an initial dosing regimen of deutetrabenazine predicted to provide exposure at steady state of the active α and β metabolites that was less than or equal to the predicted AUC at steady state of the active alpha and beta metabolites of tetrabenazine, but with a lower Cmax. Subjects in the Switch cohort completed a full screening evaluation. […] Subjects received existing tetrabenazine regimen through midnight of Day 0 and switched to their assigned deutetrabenazine regimen the next morning (Day 1 of the study). […] The investigator, in consultation with the subject and caregiver, determined when an adequate level of chorea control had been achieved. If a subject experienced a “clinically significant” adverse event attributable to deutetrabenazine, the investigator determined if a dose reduction or suspension was necessary. […] The deutetrabenazine dose for these subjects was titrated from a starting dose of 6 mg per day to a dose that controlled chorea and was well tolerated. For both cohorts, oral tablets at strengths of 6 mg, 9 mg, and 12 mg were used. Doses of 12 mg and higher were administered in two divided doses approximately 10 hours apart. All study treatment regimens were administered orally with meals. The maximum total daily dose of deutetrabenazine was set at 72 mg per day, unless the subject was receiving a strong CYP2D6 inhibitor (e.g., paroxetine), in which case the maximum total daily dose was 36 mg. Subjects attended regular clinic visits to evaluate safety and establish an optimal dose. The investigator, in consultation with the subject and caregiver, determined when an adequate level of chorea control was achieved; the dose of DTBZ could be increased on a weekly basis until there was adequate control of chorea, the subject experienced a protocol defined clinically significant adverse event, or the maximal allowable dose was reached. […]

Q: What does the source list for [2H]C([2H])([2H])Oc1cc2c(cc1OC([2H])([2H])[2H])C1CC(=O)C(CC(C)C)CN1CC2 (stereo not drawn) [deutetrabenazine, (RR, SS)-1,3,4,6,7,11b-hexahydro-9,10-di(methoxy-d3)-3-(2-methylpropyl)-2H-benzo[a]quinolizin-2-one]?
A: subjects who experienced AEs (Rollover Cohort): 39 (52.0%) n (%); subjects who experienced serious AEs (Rollover Cohort): Three; subjects with an AE that led to a dose reduction or dose suspension (Rollover Cohort): Five; TEAE Anxiety (Rollover Cohort (N = 75)): 3 (4.0) n (%); TEAE Constipation (Rollover Cohort (N = 75)): 3 (4.0) n (%); TEAE Depression (Rollover Cohort (N = 75)): 8 (10.7) n (%); TEAE Diarrhoea (Rollover Cohort (N = 75)): 4 (5.3) n (%); TEAE Disorientation (Rollover Cohort (N = 75)): 0 n (%); TEAE Dry mouth (Rollover Cohort (N = 75)): 3 (4.0) n (%); TEAE Fall (Rollover Cohort (N = 75)): 10 (13.3) n (%); TEAE Fatigue (Rollover Cohort (N = 75)): 3 (4.0) n (%); TEAE Insomnia (Rollover Cohort (N = 75)): 6 (8.0) n (%); TEAE Irritability (Rollover Cohort (N = 75)): 3 (4.0) n (%); TEAE Nasopharyngitis (Rollover Cohort (N = 75)): 2 (2.7) n (%); TEAE Sleep disorder (Rollover Cohort (N = 75)): 3 (4.0) n (%); TEAE Somnolence (Rollover Cohort (N = 75)): 6 (8.0) n (%); TEAE Vomiting (Rollover Cohort (N = 75)): 3 (4.0) n (%); subjects who experienced AEs (Rollover Cohort, Day 1 through Week 8): 45.3%; TMC mean (SD) decrease from baseline (Rollover Cohort, Week 2): 1.9 (3.0) units; Total Maximal Chorea Score, Mean (SD) Change from Baseline (Rollover Cohort, Week 2): −1.9 (2.95); Total Maximal Chorea Score, Mean (SD) Score (Rollover Cohort, Week 2): 10.1 (3.41); Total Motor Score, Mean (SD) Change from Baseline (Rollover Cohort, Week 2): −3.9 (6.67); Total Motor Score, Mean (SD) Score (Rollover Cohort, Week 2): 32.4 (15.23); mean decrease in TMS from baseline (Rollover Cohort, Week 2): 3.9 units; Total Maximal Chorea Score, Mean (SD) Change from Baseline (Rollover Cohort, Week 4): −2.5 (3.21); Total Maximal Chorea Score, Mean (SD) Score (Rollover Cohort, Week 4): 9.8 (3.69); Total Motor Score, Mean (SD) Change from Baseline (Rollover Cohort, Week 4): −5.9 (7.88); Total Motor Score, Mean (SD) Score (Rollover Cohort, Week 4): 32.1 (16.84); Total Maximal Chorea Score, Mean (SD) Change from Baseline (Rollover Cohort, Week 8): −4.5 (3.34); Total Maximal Chorea Score, Mean (SD) Score (Rollover Cohort, Week 8): 7.9 (3.91); Total Motor Score, Mean (SD) Change from Baseline (Rollover Cohort, Week 8): −8.3 (8.58); Total Motor Score, Mean (SD) Score (Rollover Cohort, Week 8): 31.0 (18.07); subjects who experienced AEs (Rollover Cohort, Week 8 through the visit cut-off date): 43.2%; TMC mean (SD) decrease from baseline (Rollover Cohort, Week 15): 4.5 (5.0) units; Total Maximal Chorea Score, Mean (SD) Score (Rollover Cohort, Week 15): 7.9 (4.05); Total Motor Score, Mean (SD) Change from Baseline (Rollover Cohort, Week 15): −8.0 (8.41); Total Motor Score, Mean (SD) Score (Rollover Cohort, Week 15): 30.5 (17.70); mean decrease in TMS from baseline (Rollover Cohort, Week 15): 8.0 units; Total Motor Score, Mean (SD) Change from Baseline (Rollover Cohort, Week 15, listed as DTBZ): −8.0; subjects with AEs assessed as mild or moderate in intensity (Rollover Cohort, of the 39 subjects with AEs): 36 (92.3%) n (%); tolerability (Rollover and Switch Cohorts): generally well tolerated; subjects who experienced at least one AE (Switch Cohort): 21 (56.8%) n (%); subjects who experienced serious AEs (Switch Cohort): Two; subjects with an AE that led to a dose reduction or dose suspension (Switch Cohort): four; withdrawal from the study due to an AE (Switch Cohort): no subjects withdrew; TEAE Anxiety (Switch Cohort (N = 37)): 3 (8.1) n (%); TEAE Constipation (Switch Cohort (N = 37)): 2 (5.4) n (%); TEAE Diarrhoea (Switch Cohort (N = 37)): 2 (5.4) n (%); TEAE Disorientation (Switch Cohort (N = 37)): 2 (5.4) n (%); TEAE Dry mouth (Switch Cohort (N = 37)): 2 (5.4) n (%); TEAE Fall (Switch Cohort (N = 37)): 3 (8.1) n (%); TEAE Fatigue (Switch Cohort (N = 37)): 1 (2.7) n (%); TEAE Insomnia (Switch Cohort (N = 37)): 1 (2.7) n (%); TEAE Irritability (Switch Cohort (N = 37)): 2 (5.4) n (%); TEAE Nasopharyngitis (Switch Cohort (N = 37)): 2 (5.4) n (%); TEAE Sleep disorder (Switch Cohort (N = 37)): 0 n (%); TEAE Somnolence (Switch Cohort (N = 37)): 9 (24.3) n (%); TEAE Vomiting (Switch Cohort (N = 37)): 1 (2.7) n (%); Total Maximal Chorea Score, Mean (SD) Score (Switch Cohort, Week 1): 11.76 (5.11); Total Motor Score, Mean (SD) Change from Baseline (Switch Cohort, Week 1): −2.14 (5.414); Total Motor Score, Mean (SD) Score (Switch Cohort, Week 1): 36.35 (18.043); Total Maximal Chorea Score, Mean (SD) Score (Switch Cohort, Week 4): 11.86 (5.23); Total Motor Score, Mean (SD) Change from Baseline (Switch Cohort, Week 4): −1.85 (8.419); Total Motor Score, Mean (SD) Score (Switch Cohort, Week 4): 37.14 (19.516); Total Maximal Chorea Score, Mean (SD) Change from Baseline (Switch Cohort, Week 8): −1.9; Total Maximal Chorea Score, Mean (SD) Score (Switch Cohort, Week 8): 10.10 (5.56); Total Motor Score, Mean (SD) Score (Switch Cohort, Week 8): 34.58 (18.268); Total Motor Score, Mean (SD) Change from Baseline (Switch Cohort, Week 8, listed as DTBZ): −3.7; Total Maximal Chorea Score, Mean (SD) Score (Switch Cohort, Week 15): 10.87 (5.99); Total Motor Score, Mean (SD) Change from Baseline (Switch Cohort, Week 15): −1.93 (10.910); Total Motor Score, Mean (SD) Score (Switch Cohort, Week 15): 35.00 (22.984); adverse events of chorea or worsening chorea (Switch Cohort, including first week after conversion from tetrabenazine): no adverse events of chorea or worsening chorea; subjects with AEs assessed as mild to moderate in intensity (Switch Cohort, of the 21 subjects with AEs): 20 (95.2%) n (%); mean change from baseline in swallowing disturbance (questionnaire) (patients switched from tetrabenazine to deutetrabenazine (FIG. 7)): trend toward improvement in swallowing; overall analysis of the safety scales (UHDRS, SDQ, UPDRS dysarthria, BARS, HADS, ESS, C-SSRS, MoCA) (through Week 28): no increased risk
